Assay results as given in patent publication US8859508B2, “Application of 5-methyl-1,3-benzenediol or derivatives thereof in the preparation of medicines and functional foods for treatment or prevention of depression” (Kunming Institute of Botany, Chinese Academy of Sciences, priority 2007, dated 2014).

Key:
Kunming mice [1] = test: Forced swim test (FST) in mice; details: FST mice
Kunming mice [2] = test: Tail suspension test (TST) in mice; details: TST mice, positive control, 15 mg/kg
CMS model mice [3] = test: FST in chronic unpredictable mild stress (CMS) model mice; type: in vivo, mouse; details: CMS mice, positive control, 15 mg/kg
Procedure: (§1) Kunming mice (Certificate Number: A4CXK(Chuan)2003-16) from the Institute of Experimental Animals, People's Hospital of Sichuan Province, were used. They were 3-4 weeks old at the beginning of experiments and weighed 25-30 g. ORG was prepared as described in Example 1. Animals were divided into experiment groups with different doses, a vehicle control group, and an imipramine group (Sigma, Batch No. 106k1588) as positive control.
(§2) CMS model: The chronic mild stresses that Kunming mice were subjected to were reversal of circadian rhythm, continuous light, cold, damp bedding, tilt cages, food and water restriction, and restraint. […] The stress period lasted for 8 weeks. In the last week, ORG was administered orally once a day for 7 consecutive days. The behavioral test was carried out 30 min after the last administration. The parameter tested was immobility time in the FST and TST in the CMS model mice. The methods of FST and TST and data analysis were as described above.

DD model mice [4] = test: TST in constant darkness (DD) model mice; type: in vivo, mouse; details: DD mice, positive control, 15 mg/kg
Procedure: (§3) Kunming mice (Certificate Number: A4CXK(Chuan)2003-16) from the Institute of Experimental Animals, People's Hospital of Sichuan Province, were used. They were 3-4 weeks old at the beginning of the experiments and weighed 25-30 g. ORG was prepared as described in Example 1. Animals were divided into experimental groups with different doses, vehicle control groups, and an imipramine group (Sigma, Batch No. 106k1588) as positive control.
(§4) DD model in mice: Mice were kept under 24 h continuous dark conditions. The replacement of padding, addition of food and water, and other operations were undertaken in the condition that the intensity of red light was less than 1.0 lux. The period of this condition lasted for 28 days. In the last week, ORG was administered orally once a day for 1 week. The FST and TST were carried out 30 min after the last administration. Methods and data analysis were as described above.

SD model mice = test: FST in sleep deprivation (SD) model mice; type: in vivo, mouse; details: SD model mice, 24 h and 5 h before FST, 7.5 mg/kg
Procedure: as §1, with “beginning of the experiments and” for “beginning of experiments and”, “Batch No. 1061c1588) as positive” for “Batch No. 106k1588) as positive”
SD model: A modified method with multiple platforms in a water environment was used to establish the SD model in mice. Mice on the platforms were free to eat and drink. However, if it fell asleep, it fell into the water because of the loss of muscle tone. The fallen animal climbed onto the platform again via a tilt pole which propped up the platforms. After 72 h of sleep deprivation, ORG was administered orally 24 h and 5 h before the FST started. The immobility time of animals were recorded. Methods and data analysis were as described above.

Sprague-Dawley rats = test: Forced swim test (FST) in rats; type: in vivo, rat; details: positive control, 15 mg/kg
DD model mice [5] = test: FST in constant darkness (DD) model mice; type: in vivo, mouse; details: DD mice, positive control, 15 mg/kg
Procedure: as §3, §4

CMS model mice [6] = test: TST in chronic unpredictable mild stress (CMS) model mice; type: in vivo, mouse; details: CMS mice, positive control, 15 mg/kg
Procedure: as §1, §2

Kunming mice [7] = test: Elevated plus maze (EPM) test in mice; type: in vivo, mouse; details: positive control, 2 mg/kg
Procedure: as §1, with “the experiment” for “experiments”, “drug administration” for “experiment”, “doses of ORG,” for “doses,”, “a diazepam” for “an imipramine”, “(Jinyao Ltd. Co.,” for “(Sigma,”
Elevated plus maze (EPM): The EPM had two open and two closed arms of equal size (30 cm long×5 cm wide). The two closed arms were connected by a central 5 cm×5 cm area. The whole maze was elevated to a height of 35 cm. ORG was administered i.p. 24 h and 5 h before the test started. Mice were individually placed in the center of the maze facing a closed arm. Each animal was tested for 5 min in a single session. The number of entrances into open arms, the number of entrances into closed arms, the total time spent in open arms, and the total time spent in closed arms were recorded; a standard of entry was defined as all limbs entering the arm. The number of entrances into open arms and time spent in open arms were the major indexes to evaluate the anxiety level of the animals, for the more entrances or time, the less the anxiety level.
(§5) Data analysis: The results of the test are expressed as mean±SEM. One-way ANOVA was used followed by the LSD test with SPSS 11 software. The significance level was set at P<0.05.

serum corticosterone = test: Serum corticosterone level (radioimmunoassay), non-stressed and elevated platform stressed rats; type: in vivo, rat
Kunming mice [8] = test: Morris water maze (MWM) in mice; type: in vivo, mouse
Procedure: Kunming mice (Certificate Number: A4CXK(Chuan)2003-16) from the Institute of Experimental Animals, People's Hospital of Sichuan Province, were used. They were 3-4 weeks old at the beginning of the experiment and weighed 25-30 g. ORG was prepared as described in Example 1. Animals were divided into drug administration groups with fluoxetine or different doses of ORG and a vehicle control group. The drug administration groups received 1.75 mg/kg or 3.5 mg/kg of ORG or 15 mg/kg of fluoxetine. Animals received a single i.p. injection of drug or vehicle 30 min either after training every day or 30 min before the retention test on day 8.
Morris water maze: The MWM was performed in a circular pool (100 cm in diameter and 36 cm in depth) with a hidden platform (10 cm×10 cm) that was approximately 1 cm below the water surface. The pool was surrounded by yellow curtains with different shaped markers hanging in each quadrant. The time spent to find the hidden platform and the trajectory of the mouse were recorded by computer. From days 1 to 7, mice were placed in the pool to find the fixed hidden platform. On day 8, the platform was removed and the time that the mouse spent in the target quadrant was counted in 1 min of free swimming.
as §5

[9] = positive control, 15 mg/kg (Table 2)
[10] = i.p. 24 h and 5 h before test, 10 mg/kg (Table 5)

Structure (SMILES): CN(C)CCCN1c2ccccc2CCc2ccccc21 [Imipramine, imipramine, reference compound]
- Immobility time (s) (mean ± SEM) (Kunming mice [1]; [9]): 131.20 ± 3.91 s
- Immobility time (s) (mean ± SEM) (Kunming mice [1]; positive control, 15 mg/kg (Table 4)): 96.38 ± 12.04 s
- Immobility time (s) (mean ± SEM) (Kunming mice [1]; positive control, 15 mg/kg (Table 5)): 146.00 ± 6.46 s
- Immobility time (s) (mean ± SEM) (Kunming mice [2]): 105.65 ± 5.71 s
- Immobility time (s) (mean ± SEM) (CMS model mice [3]): 166.00 ± 13.84 s
- Immobility time (s) (mean ± SEM) (DD model mice [4]): 131.22 ± 10.61 s
- Immobility time (s) (mean ± SEM) (SD model mice): 150.27 ± 13.17 s
- Immobility time (s) (mean ± SEM) (Sprague-Dawley rats): 92.72 ± 7.09 s
- Immobility time (s) (mean ± SEM) (DD model mice [5]): 161.22 ± 13.08 s
- Immobility time (s) (mean ± SEM) (CMS model mice [6]): 131.22 ± 10.61 s

Structure (SMILES): COc1ccc(C(CN(C)C)C2(O)CCCCC2)cc1 (stereo not drawn) [Venlafaxine, venlafaxine, reference compound]
- Immobility time (s) (mean ± SEM) (Kunming mice [1]; [9]): 134.28 ± 3.76 s
- Immobility time (s) (mean ± SEM) (Kunming mice [2]): 102.85 ± 9.34 s
- Immobility time (s) (mean ± SEM) (Sprague-Dawley rats): 100.80 ± 9.84 s

Structure (SMILES): CN1C(=O)CN=C(c2ccccc2)c2cc(Cl)ccc21 [Diazepam, diazepam, reference compound]
- Number of entries into open arms (mean ± SEM) (Kunming mice [7]): 4.80 ± 0.77
- Total time spent in the open arms (s) (mean ± SEM) (Kunming mice [7]): 46.90 ± 7.19 s

Structure (SMILES): CNCCC(Oc1ccc(C(F)(F)F)cc1)c1ccccc1 (stereo not drawn) [Fluoxetine, reference compound]
- Concentration of serum corticosterone (ng/ml) (mean ± SEM) (serum corticosterone; non-stress rats, 15 mg/kg): 167.20 ± 31.35 ng/mL
- Concentration of serum corticosterone (ng/ml) (mean ± SEM) (serum corticosterone; non-stress rats, 30 mg/kg): 178.14 ± 38.77 ng/mL
- Concentration of serum corticosterone (ng/ml) (mean ± SEM) (serum corticosterone; stress rats, 15 mg/kg): 331.35 ± 46.43 ng/mL
- Concentration of serum corticosterone (ng/ml) (mean ± SEM) (serum corticosterone; stress rats, 30 mg/kg): 324.58 ± 58.63 ng/mL
- Time spent in the right quadrant (s) (mean ± SEM) (Kunming mice [8]; i.p. 30 min before retrieval on day 8, 15 mg/kg): 29.44 ± 2.14 s
- Time spent in the right quadrant (s) (mean ± SEM) (Kunming mice [8]; i.p. daily 30 min after training, retention test day 8, 15 mg/kg): 32.61 ± 2.20 s

Structure (SMILES): CC(=O)Oc1cc(C)cc(OC(C)=O)c1 [OR-2Ac, 1,3-O-diacetylorcinol]
- Immobility time (s) (mean ± SEM) (Kunming mice [1]; [10]): 170.10 ± 6.37 s

Structure (SMILES): Cc1cc(O)cc(OC2OC(COC3OC(CO)C(O)C(O)C3O)C(O)C(O)C2O)c1 [ORGG, orcinol-1-O-[β-D-glucopyranosyl-(1→6)]-β-D-glucopyranoside]
- Immobility time (s) (mean ± SEM) (Kunming mice [1]; [10]): 184.20 ± 11.29 s

Structure (SMILES): Cc1cc(O)cc(O)c1 [OR, orcinol]
- Immobility time (s) (mean ± SEM) (Kunming mice [1]; i.p. 24 h and 5 h before test, 10 mg/kg (Table 4)): 82.40 ± 10.64 s
